Reference: patent US10994015B2, “EGFR proteolysis targeting chimeric molecules and associated methods of use” (Arvinas Operations, Inc., priority 2016, dated 2021)

Assays:
[1] = biological target: EGFR L858R/T790M (Homo sapiens (Human), UniProt P00533, L858R/T790M); test: TR-FRET assay for ERBB kinases; format: biochemical; details: geometric mean if measured more than once
Outline: (§1)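 Compounds, serially diluted 3-fold in DMSO, were pre-incubated 10 min with kinase in HEPES pH 7.5 buffer with MgCl2 and DTT. Reactions were started with a substrate mix holding 3 mM ATP and 30 uM fluorescein-poly-GluTyr, run 10 min at room temperature, then quenched with Tb-pY20 antibody plus EDTA.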

[2] = biological target: EGFR L858R/T790M/C797S (Homo sapiens (Human), UniProt P00533, C797S/L858R/T790M); test: TR-FRET assay for ERBB kinases; format: biochemical; details: geometric mean if measured more than once
Outline: as §1

[3] = biological target: EGFR WT (Homo sapiens (Human), UniProt P00533); test: TR-FRET assay for ERBB kinases; format: biochemical; details: geometric mean if measured more than once
Outline: as §1

[4] = biological target: EGFR Exon20NPG (Homo sapiens (Human), UniProt P00533, INS770NPG); test: TR-FRET assay for ERBB kinases; format: biochemical; details: geometric mean if measured more than once
Outline: (§2)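 Compounds pre-incubated 10 min with kinase in HEPES pH 7.5 buffer (MgCl2, DTT, Pluronic), then reaction started with substrate mix (3 mM ATP, 30 µM fluorescein-poly-GluTyr, stock levels) for 10 min at room temperature. EDTA-quenched, detected by Tb-pY20 antibody TR-FRET (520/490 nm emission).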

[5] = biological target: EGFR L858R (Homo sapiens (Human), UniProt P00533, L858R); test: TR-FRET assay for ERBB kinases; format: biochemical; details: geometric mean if measured more than once
Outline: as §2

[6] = biological target: EGFR Δ19/746/750 (Homo sapiens (Human), UniProt P00533, DEL746-750); test: TR-FRET assay for ERBB kinases; format: biochemical; details: geometric mean if measured more than once
Outline: as §2

[7] = biological target: EGFR Δ19/746/750 T790M (Homo sapiens (Human), UniProt P00533, DEL746-750/T790M); test: TR-FRET assay for ERBB kinases; format: biochemical; details: geometric mean if measured more than once
Outline: as §2

[8] = biological target: HER2WT (Homo sapiens (Human), UniProt P04626); test: TR-FRET assay for ERBB kinases; format: biochemical; details: geometric mean if measured more than once
Outline: as §2

[9] = biological target: HER2 InsYVMA (Homo sapiens (Human), UniProt P04626, INS775YVMA); test: TR-FRET assay for ERBB kinases; format: biochemical; details: geometric mean if measured more than once
Description: TR-FRET Assay for ERBB Kinases
All compounds and PROTACs were serially diluted in three-fold increments using 100% DMSO, followed by an intermediate 10-fold dilution using Buffer A (50 mM HEPES, pH 7.5, 50 mM NaCl, 10 mM MgCl2, 1 mM DTT, and 0.1% Pluronic F-68). Two microliters of serially diluted compound or PROTAC were then transferred to black 384-well Proxiplates (PerkinElmer, #6008260) using an Integra Viaflo96. Next, 10 uL of protein kinase in Buffer A was added to each well of the assay plate and pre-incubated with compound for 10 minutes. Kinase reactions were then initiated by addition of 5 uL substrate mix containing 3 mM ATP and 30 uM fluorescein-labeled Poly-GluTyr (Thermo Fisher, #PV3610) in Buffer A and allowed to proceed for 10 minutes at room temperature. Reactions were quenched by addition of a 5 uL mixture containing 5 nM LanthaScreen® Tb-pY20 Antibody (Thermo Fisher, #PV3552) and 40 mM EDTA in Buffer A. Assay plates were then read using a Synergy2 (Biotek Instruments, Winooski, Vt.) via excitation thru a 340/20 nm bandpass filter and emission collected thru 490/10 nm (donor) and 520/25 nm (acceptor) bandpass filters. The final kinase concentrations used for each 15 uL reaction were as follows: 0.2 nM EGFR Exon20NPG (SignalChem, #E10-132GG), 0.1 nM wild type EGFR (BPS Bioscience, #40187), 0.3 nM EGFR L858R/T790M/C797S (BPS Bioscience, #40351), 0.1 nM EGFR L858R (BPS Bioscience, #40189), 0.4 nM L858R/T790M (BPS Bioscience, #40350), InM EGFR Dell9 (SignalChem, #E10-122JG), 10 nM EGFR Dell9 T790M (SignalChem, #E10-122KG), 0.3 nM Her2 (BPS Bioscience, #40230), 15 nM Her2 InsYVMA (SignalChem, #E27-13BG).

[10] = biological target: EGFR L858R/T790M double mutant (H1975) (Homo sapiens (Human), UniProt P00533, L858R/T790M); test: EGFR protein degradation assay (Western blot); format: cell-based; details: 72 hours, 300 nM to 10 nM
Outline: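 Cells carrying the relevant EGFR form were plated at 300,000 cells per well in 6-well plates and left to attach overnight. After washing in ice-cold PBS, cells were lysed in 400 μl lysis buffer with protease inhibitors, scraped, and clarified at 10 000 rpm for 10 minutes. EGFR levels were then assessed by Western blot with tubulin as loading control.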

[11] = biological target: EGFR-wt (MDA-MB-231 or MCF7 or A549 or OVCAR8) (Homo sapiens (Human), UniProt P00533); test: EGFR protein degradation assay (Western blot); format: cell-based; details: 72 hours, 300 nM to 10 nM
Outline: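 Cells carrying the relevant EGFR form were plated at 300,000 per well in 6-well plates and left overnight to attach. For harvest, cells were rinsed once in ice-cold PBS and lysed in 400 μl lysis buffer containing protease inhibitors. Lysates were cleared at 10 000 rpm for 10 minutes and their protein content measured by BCA. Then 10 μg per sample was separated by SDS/PAGE at 165V for 2 hours, and EGFR was detected by ECL on a Chemidoc.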

[12] = biological target: EGFR-Δ19 (HCC827) (Homo sapiens (Human), UniProt P00533, DEL746-750); test: EGFR protein degradation assay (Western blot); format: cell-based; details: 72 hours, 300 nM to 10 nM
[13] = biological target: WT EGFR (Homo sapiens (Human), UniProt P00533); test: Immunoblot of EGFR degradation in OVCAR8 cells; format: cell-based; details: 24 hours
Description: (§3) Cells were treated with the indicated concentrations of PROTAC or corresponding inhibiting diastereomer for the specified time and then harvested in lysis buffer (25 mM Tris.HCl pH 7.5 with 1% NP-40 and 0.25% deoxycholate, supplemented with 10 mM sodium pyrophosphate, 20 mM ß-glycerophosphate, 10 mM sodium fluoride, 1 mM sodium orthovanadate, 0.1 mM phenylarsine oxide, 10 μg/ml leupeptin, 10 μg/ml pepstatin A, 30 μg/ml bestatin, 0.3 trypsin inhibitor units/ml aprotinin and 1 mM PMSF). Following centrifugation at 16,000×g for 10 min at 4° C. to pellet insoluble materials, the protein concentrations of the supernatants were quantitated by BCA assay (Thermo Fisher Scientific). Protein samples were resolved by 8% SDS-PAGE, electrophoretically transferred to nitrocellulose and probed with the antibodies listed above. Immunoblots were developed using enhanced chemiluminescence and visualized using a Bio-Rad Chemi-Doc MP Imaging System and quantitated with Image Lab v.5.2.1 software (Bio-Rad Laboratories).

[14] = biological target: exon-19 deletion EGFR (Homo sapiens (Human), UniProt P00533, DEL746-750); test: Immunoblot of EGFR degradation in HCC827 cells; format: cell-based; details: 24 hours
Description: as §3

[15] = biological target: L858R EGFR (Homo sapiens (Human), UniProt P00533, L858R); test: Immunoblot of EGFR degradation in H3255 cells; format: cell-based; details: 24 hours
Description: as §3

[16] = biological target: HER3 (Homo sapiens (Human), UniProt P21860); test: TR-FRET assay for ERBB kinases; format: biochemical; details: geometric mean if measured more than once
[17] = biological target: EGFR Exon 20 ASV (HeLa*) (Homo sapiens (Human), UniProt P00533, DUP767-769); test: EGFR protein degradation assay (Western blot); format: cell-based; details: 72 hours, 300 nM to 10 nM

Chain of HER2 InsYVMA (P04626 other isoform, or with tags, fused parts or gaps del 1-675/ins YVMA behind 775 limits assumed): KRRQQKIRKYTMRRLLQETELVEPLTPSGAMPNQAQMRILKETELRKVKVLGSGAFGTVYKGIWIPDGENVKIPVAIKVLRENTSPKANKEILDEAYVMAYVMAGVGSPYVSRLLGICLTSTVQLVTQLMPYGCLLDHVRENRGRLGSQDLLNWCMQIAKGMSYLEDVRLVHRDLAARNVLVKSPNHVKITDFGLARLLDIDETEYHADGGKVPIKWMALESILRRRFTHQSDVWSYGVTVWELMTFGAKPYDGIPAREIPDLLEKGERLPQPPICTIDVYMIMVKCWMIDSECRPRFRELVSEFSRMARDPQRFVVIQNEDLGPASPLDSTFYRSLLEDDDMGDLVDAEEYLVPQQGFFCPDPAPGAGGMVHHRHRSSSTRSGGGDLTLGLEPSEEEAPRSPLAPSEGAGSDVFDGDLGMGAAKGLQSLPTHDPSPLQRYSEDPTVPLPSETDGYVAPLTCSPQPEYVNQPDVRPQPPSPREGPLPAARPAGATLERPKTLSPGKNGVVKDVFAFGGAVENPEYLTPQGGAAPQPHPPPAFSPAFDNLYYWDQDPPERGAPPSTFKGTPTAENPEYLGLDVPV
Chain of HER2WT (P04626 23-1255): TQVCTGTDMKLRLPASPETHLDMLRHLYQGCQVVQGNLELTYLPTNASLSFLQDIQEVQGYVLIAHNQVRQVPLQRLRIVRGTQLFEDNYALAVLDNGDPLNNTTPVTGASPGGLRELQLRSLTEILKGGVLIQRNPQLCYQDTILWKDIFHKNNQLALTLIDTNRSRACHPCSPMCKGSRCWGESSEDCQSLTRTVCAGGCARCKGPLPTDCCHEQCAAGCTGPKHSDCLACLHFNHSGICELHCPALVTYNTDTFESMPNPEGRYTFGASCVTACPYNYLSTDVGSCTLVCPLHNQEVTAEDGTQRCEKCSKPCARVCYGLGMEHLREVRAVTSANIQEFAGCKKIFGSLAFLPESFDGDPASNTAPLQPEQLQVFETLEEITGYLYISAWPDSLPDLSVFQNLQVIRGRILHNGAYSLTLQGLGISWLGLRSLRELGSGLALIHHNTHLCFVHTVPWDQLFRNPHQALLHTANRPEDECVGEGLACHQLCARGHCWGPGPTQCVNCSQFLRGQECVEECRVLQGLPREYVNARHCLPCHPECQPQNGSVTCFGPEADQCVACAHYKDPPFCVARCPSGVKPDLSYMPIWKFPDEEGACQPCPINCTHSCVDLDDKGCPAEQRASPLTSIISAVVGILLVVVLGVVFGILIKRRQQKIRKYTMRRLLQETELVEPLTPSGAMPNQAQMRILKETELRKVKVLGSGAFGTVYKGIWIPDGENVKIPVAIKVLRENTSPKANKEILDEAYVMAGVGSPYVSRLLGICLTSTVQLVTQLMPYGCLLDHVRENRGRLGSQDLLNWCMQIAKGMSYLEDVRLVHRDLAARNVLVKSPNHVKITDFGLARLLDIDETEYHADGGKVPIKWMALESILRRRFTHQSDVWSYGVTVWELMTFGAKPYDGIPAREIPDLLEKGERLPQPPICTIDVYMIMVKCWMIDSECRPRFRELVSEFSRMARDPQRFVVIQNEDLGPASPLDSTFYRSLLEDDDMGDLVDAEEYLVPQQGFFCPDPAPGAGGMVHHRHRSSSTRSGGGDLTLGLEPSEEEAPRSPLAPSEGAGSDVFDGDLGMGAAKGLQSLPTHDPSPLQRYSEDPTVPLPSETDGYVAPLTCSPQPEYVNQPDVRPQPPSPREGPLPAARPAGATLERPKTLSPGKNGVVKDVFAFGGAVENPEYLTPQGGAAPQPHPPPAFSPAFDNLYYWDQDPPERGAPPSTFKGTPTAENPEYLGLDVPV
Chain of HER3 (P21860 20-1342, species assumed): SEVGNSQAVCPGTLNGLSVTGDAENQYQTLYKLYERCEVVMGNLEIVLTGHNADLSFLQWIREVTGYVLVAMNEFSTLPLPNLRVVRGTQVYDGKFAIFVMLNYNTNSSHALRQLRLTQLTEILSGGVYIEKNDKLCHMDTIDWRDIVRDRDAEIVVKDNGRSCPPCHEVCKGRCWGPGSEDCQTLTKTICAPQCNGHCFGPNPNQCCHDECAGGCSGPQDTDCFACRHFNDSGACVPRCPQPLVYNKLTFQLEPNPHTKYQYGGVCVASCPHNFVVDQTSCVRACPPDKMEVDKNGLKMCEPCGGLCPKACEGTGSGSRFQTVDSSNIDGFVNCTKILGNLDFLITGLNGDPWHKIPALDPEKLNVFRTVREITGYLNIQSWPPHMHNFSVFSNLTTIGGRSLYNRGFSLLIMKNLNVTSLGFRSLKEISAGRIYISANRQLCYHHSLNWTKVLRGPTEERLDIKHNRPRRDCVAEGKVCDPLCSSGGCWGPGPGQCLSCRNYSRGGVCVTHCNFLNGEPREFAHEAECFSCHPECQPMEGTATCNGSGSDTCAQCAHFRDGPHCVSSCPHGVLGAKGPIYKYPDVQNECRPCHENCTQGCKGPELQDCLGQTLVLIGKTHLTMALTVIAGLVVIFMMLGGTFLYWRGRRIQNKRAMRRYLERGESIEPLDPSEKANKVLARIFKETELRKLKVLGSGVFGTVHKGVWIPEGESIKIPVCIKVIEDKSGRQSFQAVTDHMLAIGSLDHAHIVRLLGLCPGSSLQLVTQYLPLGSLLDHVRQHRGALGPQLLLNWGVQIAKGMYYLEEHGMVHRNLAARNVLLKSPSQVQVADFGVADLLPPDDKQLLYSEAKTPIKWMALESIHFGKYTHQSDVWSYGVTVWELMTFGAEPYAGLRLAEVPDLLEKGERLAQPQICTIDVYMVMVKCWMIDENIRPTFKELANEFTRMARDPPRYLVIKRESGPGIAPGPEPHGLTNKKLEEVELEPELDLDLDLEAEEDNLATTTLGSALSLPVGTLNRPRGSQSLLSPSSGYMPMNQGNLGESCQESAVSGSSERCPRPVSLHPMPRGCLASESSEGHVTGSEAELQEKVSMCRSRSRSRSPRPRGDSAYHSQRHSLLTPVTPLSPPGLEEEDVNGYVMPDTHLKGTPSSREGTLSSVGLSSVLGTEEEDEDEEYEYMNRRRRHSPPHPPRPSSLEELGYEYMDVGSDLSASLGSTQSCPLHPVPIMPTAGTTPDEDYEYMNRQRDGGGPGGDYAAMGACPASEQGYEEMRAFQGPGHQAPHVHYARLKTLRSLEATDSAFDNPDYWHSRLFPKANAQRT

Compound | IC50 [1] [µM] | IC50 [2] [µM] | IC50 [3] [µM] | IC50 [4] [µM] | IC50 [5] [µM] | IC50 [6] [µM] | IC50 [7] [µM] | IC50 [8] [µM] | IC50 [9] [µM] | EGFR protein remaining, EGFR L858R/T790M double mutant [10] | EGFR protein remaining, EGFR-wt [11] | EGFR protein remaining, EGFR-Δ19 [12] | EGFR degradation (immunoblot) [13] | degradation of exon-19 deletion EGFR (immunoblot) [14] | degradation of L858R EGFR (immunoblot) [15] | IC50 [16] [µM] | EGFR protein remaining, EGFR Exon 20 ASV [17]
COC1CCN(c2nccc(Nc3cc4c(cn3)nc(COCCN3CCN(c5ccc6c(c5)C(=O)N(C5CCC(=O)NC5=O)C6=O)CC3)n4C(C)C)n2)CC1 (stereo not drawn) [Example 71, 2-(2,6-dioxopiperidin-3-yl)-5-(4-(2-((1-isopropyl-6-((2-(4-methoxypiperidin-1-yl)pyrimidin-4-yl)amino)-1H-imidazo[4,5-c]pyridin-2-yl)methoxy)ethyl)piperazin-1-yl)isoindoline-1,3-dione] | 0.12 | 0.096 | 30 | > 30 | 26 | > 30 | 3.1 | > 30 | 13 | C (>80% EGFR protein remaining after 72 hours of incubation with the test compound at a concentration of 300 nM) |  |  |  |  |  |  | 
(2S,4R)-1-((S,E)-2-(tert-butyl)-16-((4-((4-chloro-3-fluorophenyl)amino)-7-methoxyquinazolin-6-yl)amino)-12-methyl-4,16-dioxo-6,9-dioxa-3,12-diazahexadec-14-enoyl)-4-hydroxy-N-(4-(4-methylthiazol-5-yl)benzyl)pyrrolidine-2-carboxamide [Example 41] |  |  |  |  |  |  |  |  |  | B (≤80% and >50% EGFR protein remaining after 72 hours of incubation with the test compound at a concentration between 300 nM and 10 nM) | A (≤50% EGFR protein remaining after 72 hours of incubation with the test compound at a concentration between 300 nM and 10 nM) | A (≤50% EGFR protein remaining after 72 hours of incubation with the test compound at a concentration between 300 nM and 10 nM) |  |  |  |  | 
COc1cc2ncnc(Nc3ccc(F)c(Cl)c3)c2cc1OCCCCCOCCOCCC(=O)N[C@H](C(=O)N1C[C@H](O)C[C@H]1C(=O)NCc1ccc(-c2scnc2C)cc1)C(C)(C)C [PROTAC 3] |  |  |  |  |  |  |  |  |  |  |  |  | sparing the WT EGFR | enabled the degradation | enabled the degradation |  | 
COC1CCN(c2nccc(Nc3cc4c(cn3)nc(COCCOCCOCCOc3ccc5c(c3)C(=O)N(C3CCC(=O)NC3=O)C5=O)n4C(C)C)n2)CC1 (stereo not drawn) [Example 70, 2-(2,6-dioxopiperidin-3-yl)-5-(2-(2-(2-((1-isopropyl-6-((2-(4-methoxypiperidin-1-yl)pyrimidin-4-yl)amino)-1H-imidazo[4,5-c]pyridin-2-yl)methoxy)ethoxy)ethoxy)ethoxy)isoindoline-1,3-dione] | 15 | 16 | > 30 |  | > 30 | > 30 | 11 | > 30 | 19 | C (>80% EGFR protein remaining after 72 hours of incubation with the test compound at a concentration of 300 nM) |  |  |  |  |  |  | 
COc1cc2ncnc(Nc3ccc(F)c(Cl)c3)c2cc1NC(=O)/C=C/CN(C)CCCOCCCOCC(=O)N[C@H](C(=O)N1CC(O)C[C@@H]1C(=O)NCc1ccc(-c2scnc2C)cc1)C(C)(C)C (stereo partly drawn) [compound 48] | 3 | 7 | 0.0047 | 0.12 |  |  |  |  |  | B (≤80% and >50% EGFR protein remaining after 72 hours of incubation with the test compound at a concentration between 300 nM and 10 nM) | B (≤80% and >50% EGFR protein remaining after 72 hours of incubation with the test compound at a concentration between 300 nM and 10 nM) | A (≤50% EGFR protein remaining after 72 hours of incubation with the test compound at a concentration between 300 nM and 10 nM) |  |  |  | 20 | C (>80% EGFR protein remaining after 72 hours of incubation with the test compound at a concentration of 300 nM)
COC1CCN(c2nccc(Nc3cc4c(cn3)nc(COCCOCCOCC(=O)N[C@H](C(=O)N3C[C@@H](O)C[C@@H]3C(=O)N[C@@H](C)c3ccc(-c5scnc5C)cc3)C(C)(C)C)n4C(C)C)n2)CC1 [compound 73] | 11 | 14 | 20 |  | 9.8 | 8.1 | 6.8 | > 30 | 3.4 | C (>80% EGFR protein remaining after 72 hours of incubation with the test compound at a concentration of 300 nM) |  |  |  |  |  |  | 
Cc1ncsc1-c1ccc(CNC(=O)[C@@H]2C[C@@H](O)CN2C(=O)[C@@H](NC(=O)COCCOCCN2CCN(Cc3ccc(-c4cc5c(NCc6ccccc6Cl)ncnc5[nH]4)cc3)CC2)C(C)(C)C)cc1 [compound 4] | 22 | 10 | 0.045 | 0.29 | 0.0083 | 0.0042 | 24 | 1.8 |  | C (>80% EGFR protein remaining after 72 hours of incubation with the test compound at a concentration of 300 nM) | C (>80% EGFR protein remaining after 72 hours of incubation with the test compound at a concentration of 300 nM) |  |  |  |  |  | C (>80% EGFR protein remaining after 72 hours of incubation with the test compound at a concentration of 300 nM)
